According to patent US20240082211A1, “SOLUBLE EPOXIDE HYDROLASE AS A TARGET FOR OCULAR DISEASES” (Indiana University Research and Technology Corporation, priority 2017, published 2024):

What was measured:
human sEH = biological target: T1, human sEH (Homo sapiens, UniProt P34913); test: sEH enzyme kinetics (PHOME hydrolysis, Michaelis-Menten/Dixon analysis); format: biochemical; details: for type of inhibition of sEH: Lineweaver-Burk and Dixon plots; for Ki: human sEH, PHOME
T1 construct: purchased Cayman Chemical
T1 sequence (P34913 1-555): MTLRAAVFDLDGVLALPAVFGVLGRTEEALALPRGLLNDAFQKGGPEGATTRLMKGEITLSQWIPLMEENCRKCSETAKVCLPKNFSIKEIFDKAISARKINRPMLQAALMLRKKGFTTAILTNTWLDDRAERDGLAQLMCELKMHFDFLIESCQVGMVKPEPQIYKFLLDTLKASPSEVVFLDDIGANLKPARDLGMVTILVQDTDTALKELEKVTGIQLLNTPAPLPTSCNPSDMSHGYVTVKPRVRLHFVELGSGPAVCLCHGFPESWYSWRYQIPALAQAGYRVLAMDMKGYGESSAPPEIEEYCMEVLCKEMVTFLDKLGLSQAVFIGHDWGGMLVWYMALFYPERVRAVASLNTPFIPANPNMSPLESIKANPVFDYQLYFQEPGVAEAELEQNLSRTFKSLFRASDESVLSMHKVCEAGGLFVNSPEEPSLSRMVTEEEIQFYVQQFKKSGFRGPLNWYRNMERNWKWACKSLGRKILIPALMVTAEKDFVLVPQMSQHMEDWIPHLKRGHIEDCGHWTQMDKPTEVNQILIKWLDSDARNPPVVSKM
Description: Various concentrations of compound dissolved in DMSO (final DMSO concentration=5% (v/v)) and human sEH (60 ng/mL final concentration; Cayman Chemical) in 25 mM bis-Tris-HCl buffer containing 0.1% (w/v) BSA were mixed in a 96 well plate. PHOME at indicated concentrations was added to the wells to initiate the reaction and fluorescence was read with an excitation wavelength of 330 nm and emission wavelength of 465 nm. The standard curve plotted from dilutions of the product, 6-methoxy-2-naphthaldehyde, was used to convert fluorescence reading (RFU/min) to sEH activity (nmol product formed/min). The reaction rate was obtained from the slope of the line from time=5 to 15 minutes for each substrate concentration, and analyzed using GraphPad Prism 7 and SigmaPlot 13.0 to determine Michaelis-Menten kinetic parameters.

sEH = test: Lipid profiling of retina/choroid in L-CNV mice (19,20-EDP/DHDP ratio as sEH activity in vivo); parameters: species or system mouse; details: 10 μM intravitreal, 3 days post-laser, vs vehicle treated controls
Description: The L-CNV mouse model and injections were performed as previously described. […] Compounds where indicated were injected a single time immediately post-laser treatment, delivered intravitreally using a 33-gauge needle, in a 0.5 μL volume. […] Vehicle alone (PBS+0.5% (v/v) DMSO) was used as negative control. […] Eyes were numbed with tetracaine solution before the injection, and triple antibiotic ointment was used immediately after the injection to prevent infection. Lipid Profiling
Mice were sacrificed 3 days post-laser-treatment, eyes were enucleated and retina/choroid layers were immediately separated and stored at −80° C.

[1] = biological target: T2, sEH activity in L-CNV eye tissue homogenates (Mus musculus, UniProt P34914); test: Tissue-based sEH activity assay using trans-stilbene oxide; format: biochemical; details: 20 μM, 3 days post-laser-treatment, trans-stilbene oxide substrate
T2 construct: from tissue; host or cells: mouse eye homogenate (C57BL/6J, L-CNV), 100,000 x g supernatant
T2 sequence (P34914 1-554): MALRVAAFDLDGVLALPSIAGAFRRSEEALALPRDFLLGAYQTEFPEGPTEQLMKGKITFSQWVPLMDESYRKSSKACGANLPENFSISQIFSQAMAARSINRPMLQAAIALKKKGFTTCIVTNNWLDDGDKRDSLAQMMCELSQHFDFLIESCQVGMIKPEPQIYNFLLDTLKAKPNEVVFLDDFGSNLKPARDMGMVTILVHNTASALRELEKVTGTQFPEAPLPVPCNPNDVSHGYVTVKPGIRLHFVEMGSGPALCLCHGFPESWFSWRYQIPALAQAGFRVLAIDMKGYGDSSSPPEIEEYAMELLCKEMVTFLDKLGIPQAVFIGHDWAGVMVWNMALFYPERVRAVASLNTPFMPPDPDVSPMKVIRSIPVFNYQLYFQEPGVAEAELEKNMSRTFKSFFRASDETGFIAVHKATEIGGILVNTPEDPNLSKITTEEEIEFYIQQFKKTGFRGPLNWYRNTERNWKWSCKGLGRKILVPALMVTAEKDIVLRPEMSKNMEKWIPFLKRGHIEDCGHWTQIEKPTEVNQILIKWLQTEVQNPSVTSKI
Description: The sEH activity in tissue homogenates was assayed using trans-stilbene oxide (t-SO) as substrate. The assay is based on the hydrolysis of t-SO that is tracked as a decrease in the absorbance at 230 nm. L-CNV was induced as described above. After 3 days, enucleated eyes from both untreated and L-CNV mice were homogenized in 0.2 M sodium phosphate buffer, pH 7.4. To remove microsomal epoxide hydrolase and lenses, tissue extracts were centrifuged at 100,000×g for 30 minutes at 4° C. After protein estimation, 100 μL of tissue homogenates (100 μg/mL) and 98 μL of SH-11037 or 7 dissolved in DMSO/buffer (final 1% (v/v) DMSO) were added to a UV-transparent 96-well plate. After 5 minutes' incubation at room temperature, 2 μL of t-SO in ethanol (100 μM final concentration) was added to assay wells to initiate the reaction. The absorbance was read at 230 nm for 20 minutes. sEH activity was determined as follows:
sEH Activity=[(A0−A20)−(B0−B20)]/mg of protein in a reaction
Where A0 and A20 are absorbance of test wells read at 230 nm at time 0 and 20 minutes respectively, and B0 and B20 are absorbance of background wells read at 230 nm at time 0 and 20 minutes.

[2] = tested on: choroidal neovascularization; details: cited from earlier work
[3] = biological target: T3, soluble epoxide hydrolase (sEH) (Homo sapiens, UniProt P34913); test: Recombinant soluble epoxide hydrolase activity assay (fluorogenic substrate PHOME)
T3 sequence (P34913 1-555): T1 sequence (P34913 1-555)
Description: Compounds were dissolved in DMSO (final DMSO concentration=5% (v/v)). Activity was calculated according to:
% Initial Activity=[(FI15−FI0)/(FT15−FT0)]×100%
where FI is the background corrected fluorescence signal obtained in the presence of an inhibitor and FT is the background corrected fluorescence signal obtained for the total activity at times 0 and 15 minutes. IC50 values were calculated using GraphPad Prism v.

[4] = tested on: choroidal neovascularization; test: Laser-induced choroidal neovascularization (L-CNV) mouse model, CNV lesion volume; format: in vivo; details: single intravitreal injection, 14 days post-laser, vs vehicle
[5] = tested on: mouse choroidal sprouting; test: Choroidal sprouting assay (ex vivo); format: cell-based; details: 0.1, 1, 10 μM, 48 hours, vs vehicle
Description: Benzisoxazole sEH inhibitor 7 was synthesized according to the method as described in Shen et al., Bioorg. […] Sprouting of endothelial cells from choroidal layers was tested as described in Sulaiman et al., Sci. Rep. […] The final concentration of DMSO in each well was 0.2% (v/v). Images were taken using an EVOS-fl digital microscope (AMG, Mill Creek, WA, USA) and data were analyzed as the sprouting distance in four different directions using ImageJ software v.1.48v (http://imagej.nih.gov/ij/).

Row | Structure (SMILES) | type of inhibition of sEH (human sEH) | Ki (human sEH) [µM] | ratio of 19,20-EDP to 19,20-DHDP in retina/choroid (sEH) | sEH activity in L-CNV eye lysates [1] | combination with anti-VEGF antibody in L-CNV ([2]; WO 2017/091473) | effective doses in L-CNV, intravitreal ([2]; previously shown (Sulaiman et al. 2016; WO 2017/091473)) [µM] | IC50 [3] [µM] | Ki (human sEH; Dixon plot, n=3) [µM] | CNV lesion vascular volume [4] | ability of choroidal tissues to form sprouts [5]
1 | COc1ccc(CC2COc3cc(OC)c(OC)c(OC)c3C2=O)cc1OC(=O)[C@H](Cc1ccccc1)NC(=O)OC(C)(C)C (stereo partly drawn) [SH-11037, (2S)-2-methoxy-5-((5,6,7-trimethoxy-4-oxochroman-3-yl)methyl)phenyl 2-((tert-butoxycarbonyl)amino)-3-phenylpropanoate] | mixed-type inhibitor | 1.73 ± 0.45 | partially normalized | normalized | synergize | > 1 | 0.15 |  |  | 
2 | FC(F)(F)c1ccc(Nc2noc3c(C(F)(F)F)cccc23)cc1 [compound 7, 7-(trifluoromethyl)-N-(4-(trifluoromethyl)phenyl) benzo[d]isoxazol-3-amine, reference compound] | mixed-type inhibitor |  |  | normalized |  |  | 0.0095 | 0.0196 | dose-dependently suppressed | suppressed
